Reference: patent US12077503B2, “Substituted cyclic amides and their use as herbicides” (FMC CORPORATION, priority 2015, dated 2024)

Tests used:
Format in all cases: in vivo
Kochia (Kochia scoparia) [1] = experiment: Test A preemergence; conditions: Bassia scoparia, pre-emergence, 240 h; for pest or weed control at 125 g/ha: 125 g ai/ha, Preemergence, visual injury rating after approximately 10 d, read-out: Kochia plant response rating (0 to 100 scale, 0 is no effect, 100 is complete control); for pest or weed control at 500 g/ha: 500 g ai/ha, preemergence, visual injury rating about 10 d after treatment, 0 to 100 scale (0 no effect, 100 complete control), read-out: Kochia plant response rating
Outline: (§1)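 Ratings of 0 (no effect) to 100 (complete control) come from visual comparison with untreated controls roughly 10 d after treatment. Test chemicals, formulated in a non-phytotoxic solvent mixture with surfactant, were applied either as a preemergence directed soil spray on seeded soil or postemergence to one- to two-leaf plants 2 to 10 cm tall.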

[2] = system: ryegrass, Italian (Italian ryegrass, Lolium multiflorum); experiment: Test A preemergence; conditions: Lolium multiflorum, pre-emergence, 240 h; for pest or weed control at 125 g/ha: 125 g ai/ha, Preemergence, visual injury rating after approximately 10 d, read-out: Ryegrass, Italian plant response rating (0 to 100 scale, 0 is no effect, 100 is complete control); for pest or weed control at 500 g/ha: 500 g ai/ha, preemergence, visual injury rating about 10 d after treatment, 0 to 100 scale (0 no effect, 100 complete control), read-out: Ryegrass, Italian plant response rating
Outline: as §1

[3] = system: barnyardgrass (Echinochloa crus-galli); experiment: Test A preemergence; conditions: Echinochloa crus-galli, pre-emergence, 240 h; for pest or weed control at 125 g/ha: 125 g ai/ha, Preemergence, visual injury rating after approximately 10 d, read-out: Barnyardgrass plant response rating (0 to 100 scale, 0 is no effect, 100 is complete control); for pest or weed control at 500 g/ha: 500 g ai/ha, preemergence, visual injury rating about 10 d after treatment, 0 to 100 scale (0 no effect, 100 complete control), read-out: Barnyardgrass plant response rating
Outline: as §1

[4] = system: giant foxtail (Setaria faberii); experiment: Test A preemergence; conditions: Setaria faberi, pre-emergence, 240 h; for pest or weed control at 125 g/ha: 125 g ai/ha, Preemergence, visual injury rating after approximately 10 d, read-out: Foxtail, Giant plant response rating (0 to 100 scale, 0 is no effect, 100 is complete control); for pest or weed control at 500 g/ha: 500 g ai/ha, preemergence, visual injury rating about 10 d after treatment, 0 to 100 scale (0 no effect, 100 complete control), read-out: Foxtail, Giant plant response rating
Outline: as §1

[5] = system: ragweed (common ragweed, Ambrosia elatior); experiment: Test A preemergence; conditions: Ambrosia artemisiifolia, pre-emergence, 240 h; for pest or weed control at 125 g/ha: 125 g ai/ha, Preemergence, visual injury rating after approximately 10 d, read-out: Ragweed plant response rating (0 to 100 scale, 0 is no effect, 100 is complete control); for pest or weed control at 500 g/ha: 500 g ai/ha, preemergence, visual injury rating about 10 d after treatment, 0 to 100 scale (0 no effect, 100 complete control), read-out: Ragweed plant response rating
Outline: as §1

[6] = system: pigweed (Amaranthus retroflexus); experiment: Test A preemergence; conditions: Amaranthus retroflexus, pre-emergence, 240 h; for pest or weed control at 125 g/ha: 125 g ai/ha, Preemergence, visual injury rating after approximately 10 d, read-out: Pigweed plant response rating (0 to 100 scale, 0 is no effect, 100 is complete control); for pest or weed control at 500 g/ha: 500 g ai/ha, preemergence, visual injury rating about 10 d after treatment, 0 to 100 scale (0 no effect, 100 complete control), read-out: Pigweed plant response rating
[7] = system: blackgrass (Alopecurus myosuroides); experiment: Test A postemergence; conditions: Alopecurus myosuroides, post-emergence, 240 h, read-out: Plant response rating, Blackgrass; for pest or weed control at 125 g/ha: 125 g ai/ha, Postemergence, visual injury after approximately 10 d, 0 to 100 scale where 0 is no effect and 100 is complete control; for pest or weed control at 500 g/ha: 500 g ai/ha, postemergence, visual injury, 0 to 100 scale (0 no effect, 100 complete control), approx. 10 d
Outline: as §1

Kochia (Kochia scoparia) [8] = experiment: Test A postemergence; conditions: Bassia scoparia, post-emergence, 240 h; for pest or weed control at 125 g/ha: 125 g ai/ha; for pest or weed control at 500 g/ha: 500 g ai/ha, visual injury, 0 to 100 scale (0 no effect, 100 complete control)
Outline: as §1

[9] = system: barnyardgrass (Echinochloa crus-galli); experiment: Test A postemergence; conditions: Echinochloa crus-galli, post-emergence, 240 h, read-out: Plant response rating, Barnyardgrass; for pest or weed control at 125 g/ha: 125 g ai/ha, Postemergence, visual injury after approximately 10 d, 0 to 100 scale where 0 is no effect and 100 is complete control; for pest or weed control at 500 g/ha: 500 g ai/ha, postemergence, visual injury, 0 to 100 scale (0 no effect, 100 complete control), approx. 10 d
Outline: as §1

[10] = system: pigweed (Amaranthus retroflexus); experiment: Test A postemergence; conditions: Amaranthus retroflexus, post-emergence, 240 h; for pest or weed control at 125 g/ha: 125 g ai/ha; for pest or weed control at 500 g/ha: 500 g ai/ha, visual injury, 0 to 100 scale (0 no effect, 100 complete control)
Outline: as §1

rice (Oryra sativa) = experiment: Test B flooded paddy test; conditions: Oryza sativa, 250 g ai/ha, Flood; 0 to 100 scale where 0 is no effect and 100 is complete control; read-out: Rice plant response rating
Outline: (§2)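 Response scored visually against untreated controls, 0 = no effect and 100 = complete control, 13–15 d after treatment in the greenhouse. Compounds added to paddy water held 3 cm above soil surface. Treatment given at 2-leaf stage.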

[11] = system: barnyardgrass (Echinochloa crus-galli); experiment: Test B flooded paddy test; conditions: Echinochloa crus-galli, 250 g ai/ha, Flood; 0 to 100 scale where 0 is no effect and 100 is complete control; read-out: Barnyardgrass plant response rating
Outline: as §2

[12] = system: ducksalad (Heteranthera limosa); experiment: Test B flooded paddy test; conditions: Heteranthera limosa, 250 g ai/ha, Flood; 0 to 100 scale where 0 is no effect and 100 is complete control; read-out: Ducksalad plant response rating
Outline: as §2

[13] = system: sedge, umbrella (small-flower umbrella sedge, Cyperus difformis); experiment: Test B flooded paddy test; conditions: Cyperus difformis, 250 g ai/ha, Flood; 0 to 100 scale where 0 is no effect and 100 is complete control; read-out: Sedge, Umbrella plant response rating
Outline: as §2

[14] = Postemergence, visual injury after approximately 10 d, 0 to 100 scale where 0 is no effect and 100 is complete control, read-out: Plant response rating, Kochia
[15] = postemergence, approx. 10 d, read-out: Plant response rating, Kochia
[16] = Postemergence, visual injury after approximately 10 d, 0 to 100 scale where 0 is no effect and 100 is complete control, read-out: Plant response rating, Pigweed
[17] = postemergence, approx. 10 d, read-out: Plant response rating, Pigweed
[18] = postemergence, visual injury on 0 to 100 scale (0 no effect, 100 complete control), approx. 10 d, read-out: Kochia plant response rating
[19] = postemergence, visual injury on 0 to 100 scale (0 no effect, 100 complete control), approx. 10 d, read-out: Pigweed plant response rating

SMILES	pest or weed control at 125 g/ha (Kochia (Kochia scoparia) [1]) [%]	pest or weed control at 500 g/ha (Kochia (Kochia scoparia) [1]) [%]	pest or weed control at 125 g/ha [2] [%]	pest or weed control at 500 g/ha [2] [%]	pest or weed control at 125 g/ha [3] [%]	pest or weed control at 500 g/ha [3] [%]	pest or weed control at 125 g/ha [4] [%]	pest or weed control at 500 g/ha [4] [%]	pest or weed control at 125 g/ha [5] [%]	pest or weed control at 500 g/ha [5] [%]	pest or weed control at 125 g/ha [6] [%]	pest or weed control at 500 g/ha [6] [%]	pest or weed control at 125 g/ha [7] [%]	pest or weed control at 500 g/ha [7] [%]	pest or weed control at 500 g/ha (Kochia (Kochia scoparia) [8]; [15]) [%]	pest or weed control at 125 g/ha [9] [%]	pest or weed control at 500 g/ha [9] [%]	pest or weed control at 500 g/ha [10, 17] [%]	pest or weed control at 250 g/ha (rice (Oryra sativa)) [%]	pest or weed control at 250 g/ha [11] [%]	further results
Cc1ccc([C@H]2CN(C)C(=O)[C@@H]2C(=O)Nc2cccc(F)c2C)cc1Cl [Compound 1014]	20	70	0	70	90	90	90	90	0	0	30	30	0	50	50	90	90	30	70	100	pest or weed control at 125 g/ha (Kochia (Kochia scoparia) [8]; [14]): 30%; pest or weed control at 125 g/ha [10, 16]: 30%; pest or weed control at 250 g/ha [12]: 85%; pest or weed control at 250 g/ha [13]: 0%
CC(=O)Oc1ccc(F)c(NC(=O)[C@H]2C(=O)N(C)C[C@@H]2c2cc(F)cc(F)c2)c1 [Compound 1019]	0	0	0	0	0	0	0	0	0	0	0	0	0	0	0	0	0	0	0	0	pest or weed control at 125 g/ha (Kochia (Kochia scoparia) [8]; [14]): 0%; pest or weed control at 125 g/ha [10, 16]: 0%; pest or weed control at 250 g/ha [12]: 0%; pest or weed control at 250 g/ha [13]: 0%
O=C1NC[C@H](c2ccc3c(c2)OCO3)[C@H]1C(=O)Nc1ccc(F)cc1F [Compound 1026]	30	80	0	0	90	90	30	90	50	50	0	0	0	0	0	70	90	0	20	0	pest or weed control at 125 g/ha (Kochia (Kochia scoparia) [8]; [14]): 0%; pest or weed control at 125 g/ha [10, 16]: 0%; pest or weed control at 250 g/ha [12]: 100%; pest or weed control at 250 g/ha [13]: 0%
CC(C)COc1cccc([C@H]2CN(C)C(=O)[C@@H]2C(=O)Nc2ccc(F)cc2F)c1 [Compound 1030]	0	70	70	70	70	90	90	90	0	0	0	0	0	60	0	70	90	0	0	30	pest or weed control at 125 g/ha (Kochia (Kochia scoparia) [8]; [18]): 0%; pest or weed control at 125 g/ha [10, 19]: 0%; pest or weed control at 250 g/ha [12]: 70%; pest or weed control at 250 g/ha [13]: 0%
O=C(Nc1ccccc1F)[C@H]1C(=O)N(C2CC2)CC[C@@H]1c1ccccc1 [Compound 1031]	0	0	0	0	0	0	0	0	0	0	0	0	0	0	0	0	0	0	0	0	pest or weed control at 125 g/ha (Kochia (Kochia scoparia) [8]; [18]): 0%; pest or weed control at 125 g/ha [10, 19]: 0%; pest or weed control at 250 g/ha [12]: 0%; pest or weed control at 250 g/ha [13]: 0%
